According to PubChem BioAssay (NCI):
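1) Cells in 96-well plates. 2) Compound, 48 h, 5 concentrations. 3) Linear interpolation between surrounding doses. 4) Unreached endpoint = highest concentration. TGI: concentration producing complete growth inhibition.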

Legend:
Assay in all cases: DTP human tumour cell line panel, 48 h
[1] = tested on: OVCAR-4 ovarian
[2] = tested on: 786-0 renal
[3] = tested on: HT29 colon
[4] = tested on: A549 NSCLC
[5] = tested on: NCI-H226 lung
[6] = tested on: DMS 273 small cell lung
[7] = tested on: LXFL 529 NSCLC
[8] = tested on: DLD-1 colon
[9] = tested on: SK-OV-3 ovarian
[10] = tested on: SNB-78 CNS
[11] = tested on: ACHN renal
[12] = tested on: LOX IMVI melanoma
[13] = tested on: IGROV1 ovarian
[14] = tested on: TK-10 renal
[15] = tested on: OVCAR-3 ovarian
[16] = tested on: SF-539 CNS
[17] = tested on: CCRF-CEM leukemia
[18] = tested on: M14 melanoma
[19] = tested on: SK-MEL-5 melanoma
[20] = tested on: NCI-H522 lung
[21] = tested on: SNB-75 CNS
[22] = tested on: U251 CNS
[23] = tested on: HOP-18 NSCLC
[24] = tested on: OVCAR-8 ovarian
[25] = tested on: SF-295 CNS
[26] = tested on: SR leukemia
[27] = tested on: KM12 colon
[28] = tested on: DMS 114 small cell lung
[29] = tested on: NCI-H23 lung
[30] = tested on: SNB-19 CNS
[31] = tested on: NCI-H460 lung
[32] = tested on: OVCAR-5 ovarian
[33] = tested on: A498 renal
[34] = tested on: MALME-3M melanoma
[35] = tested on: K-562 leukemia
[36] = tested on: KM20L2 colon
[37] = tested on: RXF 393 renal
[38] = tested on: SK-MEL-2 melanoma
[39] = tested on: SW-620 colon
[40] = tested on: EKVX NSCLC
[41] = tested on: UO-31 renal
[42] = tested on: SF-268 CNS
[43] = tested on: HL-60(TB) leukemia
[44] = tested on: COLO 205 colon
[45] = tested on: M19-MEL melanoma
[46] = tested on: HOP-62 NSCLC
[47] = tested on: HCC-2998 colon
[48] = tested on: SN12C renal
[49] = tested on: UACC-257 melanoma
[50] = tested on: XF 498 CNS
[51] = tested on: HOP-92 NSCLC
[52] = tested on: CAKI-1 renal
[53] = tested on: HCT-116 colon
[54] = tested on: MOLT-4 leukemia
[55] = tested on: SK-MEL-28 melanoma
[56] = tested on: RPMI-8226 leukemia
[57] = tested on: UACC-62 melanoma
[58] = tested on: HCT-15 colon

Structure (SMILES): N#CNC(=NCc1ccccc1)NCc1ccccc1
- TGI [1]: > 100 µM
- TGI [2]: > 100 µM
- TGI [3]: > 100 µM
- TGI [4]: > 100 µM
- TGI [5]: > 100 µM
- TGI [6]: > 56 µM
- TGI [7]: > 100 µM
- TGI [8]: > 71 µM
- TGI [9]: > 100 µM
- TGI [10]: > 100 µM
- TGI [11]: > 100 µM
- TGI [12]: > 100 µM
- TGI [13]: > 100 µM
- TGI [14]: > 100 µM
- TGI [15]: > 100 µM
- TGI [16]: > 100 µM
- TGI [17]: > 100 µM
- TGI [18]: > 100 µM
- TGI [19]: > 100 µM
- TGI [20]: > 100 µM
- TGI [21]: > 100 µM
- TGI [22]: > 70.7 µM
- TGI [23]: > 100 µM
- TGI [24]: > 100 µM
- TGI [25]: > 100 µM
- TGI [26]: 69 µM
- TGI [27]: > 100 µM
- TGI [28]: > 53.4 µM
- TGI [29]: > 100 µM
- TGI [30]: > 100 µM
- TGI [31]: > 100 µM
- TGI [32]: > 100 µM
- TGI [33]: > 100 µM
- TGI [34]: > 100 µM
- TGI [35]: > 100 µM
- TGI [36]: > 100 µM
- TGI [37]: > 89 µM
- TGI [38]: > 100 µM
- TGI [39]: > 62.7 µM
- TGI [40]: > 100 µM
- TGI [41]: > 100 µM
- TGI [42]: 48.6 µM
- TGI [43]: > 100 µM
- TGI [44]: > 57.3 µM
- TGI [45]: > 96.3 µM
- TGI [46]: > 100 µM
- TGI [47]: > 100 µM
- TGI [48]: > 100 µM
- TGI [49]: > 100 µM
- TGI [50]: > 100 µM
- TGI [51]: > 100 µM
- TGI [52]: > 100 µM
- TGI [53]: 33.6 µM
- TGI [54]: > 100 µM
- TGI [55]: > 100 µM
- TGI [56]: > 100 µM
- TGI [57]: > 100 µM
- TGI [58]: > 55.8 µM

Structure (SMILES): Cc1ccc(S(=O)(=O)NC2CCCCO2)cc1 (stereo unspecified)
- TGI [1]: > 100 µM
- TGI [2]: > 100 µM
- TGI [3]: > 100 µM
- TGI [4]: > 100 µM
- TGI [5]: > 100 µM
- TGI [6]: > 100 µM
- TGI [7]: > 100 µM
- TGI [8]: > 100 µM
- TGI [9]: > 100 µM
- TGI [10]: > 100 µM
- TGI [11]: > 100 µM
- TGI [12]: > 100 µM
- TGI [13]: > 100 µM
- TGI [15]: > 100 µM
- TGI [16]: > 100 µM
- TGI [17]: > 100 µM
- TGI [18]: > 100 µM
- TGI [19]: > 100 µM
- TGI [20]: > 100 µM
- TGI [21]: > 100 µM
- TGI [22]: > 100 µM
- TGI [23]: > 100 µM
- TGI [24]: > 100 µM
- TGI [27]: > 100 µM
- TGI [28]: > 100 µM
- TGI [29]: > 100 µM
- TGI [30]: > 100 µM
- TGI [31]: > 100 µM
- TGI [32]: > 100 µM
- TGI [33]: > 100 µM
- TGI [34]: > 100 µM
- TGI [35]: > 100 µM
- TGI [36]: > 100 µM
- TGI [37]: > 100 µM
- TGI [39]: > 100 µM
- TGI [40]: > 100 µM
- TGI [41]: > 100 µM
- TGI [42]: > 100 µM
- TGI [44]: > 100 µM
- TGI [45]: > 100 µM
- TGI [46]: > 100 µM
- TGI [47]: > 100 µM
- TGI [48]: > 100 µM
- TGI [49]: > 100 µM
- TGI [50]: > 100 µM
- TGI [51]: > 100 µM
- TGI [52]: > 100 µM
- TGI [53]: > 100 µM
- TGI [54]: > 100 µM
- TGI [55]: > 100 µM
- TGI [56]: > 100 µM
- TGI [57]: > 100 µM
- TGI [58]: > 100 µM
